From publication PMC5214846 (Structure (London, England : 1993), 2016)
Like-named read-outs stand apart in the source and are kept apart here.

Assays:
[1] = target: T1, ELIC (Dickeya chrysanthemi, UniProt P0C7B7); assay: Functional measurements of Xenopus laevis oocytes expressing ELIC; conditions: for Modulation of ELIC at low agonist concentration (EC3) / Modulation of ELIC at EC20: representative traces; for Modulation of ELIC at EC20: agonist EC20
[2] = tested on: ELIC-α1β3GABAAR; type: cell-based; conditions: for Modulation of ELIC-α1β3GABAAR at EC20: agonist EC20
[3] = target: T1, ELIC; conditions: cited from earlier work
[4] = Highest soluble concentration of long-chain alcohols

T1 sequence (P0C7B7 whole entry): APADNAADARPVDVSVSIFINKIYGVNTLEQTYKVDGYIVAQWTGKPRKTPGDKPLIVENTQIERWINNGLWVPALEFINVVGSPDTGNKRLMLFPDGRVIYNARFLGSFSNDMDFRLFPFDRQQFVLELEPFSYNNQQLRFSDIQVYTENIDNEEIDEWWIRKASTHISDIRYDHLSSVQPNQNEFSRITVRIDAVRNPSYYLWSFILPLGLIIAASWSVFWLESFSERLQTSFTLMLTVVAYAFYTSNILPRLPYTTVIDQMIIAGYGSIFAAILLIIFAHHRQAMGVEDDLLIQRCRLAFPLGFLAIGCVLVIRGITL

Structure (SMILES): CCO [EtOH, ethanol]
- Modulation of ELIC at low agonist concentration (EC3) [1]: inhibition
- Modulation of ELIC at EC20 [1]: strongly inhibit
- Modulation of ELIC-α1β3GABAAR at low agonist concentration (EC3) [2]: potentiate
- Modulation of ELIC-α1β3GABAAR at EC20 [2]: no inhibition

Structure (SMILES): CC(C)c1cccc(C(C)C)c1O [propofol]
- Effect on ELIC ([3]; through a common TMD intra-subunit binding pocket, ref Kinde et al., 2016): inhibit

Structure (SMILES): FC(F)OC(Cl)C(F)(F)F (stereo not drawn) [isoflurane]
- Effect on ELIC ([3]; binding to the pore at 6′ and 13′ positions, ref Chen et al., 2015): inhibits

Structure (SMILES): CCCCCCCCCCO [n-decanol]
- Inhibition of ELIC at highest soluble concentration ([1]; n-decanol ~0.3 mM, n-dodecanol ~0.02 mM, PPA-elicited current): much weaker inhibition than n-nonanol or n-hexanol
- Highest soluble concentration [4]: ~ 0.3 mM

Structure (SMILES): OCCBr [BrEtOH, 2-bromoethanol]
- Modulation of ELIC at low agonist concentration (EC3) [1]: inhibition
- Modulation of ELIC at EC20 [1]: strongly inhibit
- Modulation of ELIC-α1β3GABAAR at low agonist concentration (EC3) [2]: potentiate
- Modulation of ELIC-α1β3GABAAR at EC20 [2]: some potentiation
